# Assay results from US9273043B2, “TRPV1 antagonists including dihydroxy substituent and uses thereof” (Purdue Pharma L.P., priority 2011, dated 2016).
# Test system: neuropathic mechanical hyperalgesia after partial sciatic nerve ligation
# Assay: Seltzer model (partial sciatic nerve ligation) of neuropathic pain, paw withdrawal threshold
# Type: in vivo, rat
# Conditions: for % Reversal [mean ± SEM]: rat; for % reversal of neuropathic hyperalgesia / % reversal of neuropathic hyperalgesia, maximum analgesic efficacy: rat Seltzer model
# Method: In the Seltzer model, the partial sciatic nerve ligation model of neuropathic pain was used to produce neuropathic hyperalgesia in rats (Seltzer et al., “A Novel Behavioral Model of Neuropathic Pain Disorders Produced in Rats by Partial Sciatic Nerve Injury,” Pain 43:205-218 (1990)). Partial ligation of the left sciatic nerve was performed under isoflurane/O2 inhalation anaesthesia. Following induction of anesthesia, the left thigh of the male, 6-7 week old Jcl:SD rat was shaved. The sciatic nerve was exposed at high thigh level through a small incision and was carefully cleared of surrounding connective tissues at a site near the trocanther just distal to the point at which the posterior biceps semitendinosus nerve branches off of the common sciatic nerve. A 7-0 silk suture was inserted into the nerve with a ⅜ curved, reversed-cutting mini-needle and tightly ligated so that the dorsal ⅓ to ½ of the nerve thickness was held within the ligature. The wound was closed with a single muscle suture (4-0 nylon (Vicryl)) and vetbond tissue glue. The wound area was then dusted with antibiotic powder. Sham treatment involved an identical surgical procedure except that the sciatic nerve was not manipulated or ligated.
# Following surgery, animals were weighed and placed on a warm pad until they recovered from anesthesia. Animals were then returned to their home cages until behavioral testing began. The animal was assessed for response to noxious mechanical stimuli by determining PWT for the rear paw of the animal, as described below, prior to surgery (baseline), then immediately prior to and 1, 3, 5, 7, and 24 hours after oral drug-in-vehicle administration (for day 1). Thus, the 24 hour time point was the start of the next day when drug-in-vehicle was again orally administered (24 hours after the prior administration). On days 2 and 3, PWT response was determined 1, 3, and 24 hours thereafter. Percentage reversal of neuropathic hyperalgesia at each of the specified times after administration was defined as: […]
# Additionally, 10 mg/kg of pregabalin (Kemprotec, Ltd., Middlesbrough, UK), an anticonvulsant accepted for relief of particular neuropathic pain, in vehicle and the vehicle alone (0.5% weight/volume methylcellulose (400cP, Wako Pure Chemical Industries, Ltd.)/aqueous solution) were orally administered as controls. […] Ten rats that underwent partial ligation of the left sciatic nerve were used for each treatment group. Dunnett's test was conducted for the % reversal; values with p<0.05 were considered to be statistically significant.
# Additionally, as a control the rats underwent sham surgery in which an identical surgical procedure was followed with regard to the right thigh but the sciatic nerve was neither manipulated nor ligated.
# Response to Mechanical Stimuli as an Assessment of Mechanical Hyperalgesia: The paw pressure assay was used to assess mechanical hyperalgesia. […] Biochem. and Behavior 31:451-455 (1988). The maximum weight that could be applied to the hind paw was set at 250 g and the end point was taken as complete withdrawal of the paw. PWT was determined once for each rat at each time point and either only the affected (ipsilateral) paw was tested, or both the ipsilateral and contralateral (non-injured) paw were tested.
smiles,measurement,setting,value
CC1CN(c2ncc(C(O)CO)cc2F)CCN1C(=O)Nc1nc2cc(F)ccc2s1.O=C(O)C=CC(=O)O (centres unmarked),% Reversal [mean ± SEM],"1 mg/kg oral once daily, 1 hours (day 2) after administration",12.04 ± 4.92 %
same,% Reversal [mean ± SEM],"1 mg/kg oral once daily, 1 hours (day 3) after administration",6.44 ± 6.50%
same,% Reversal [mean ± SEM],"1 mg/kg oral once daily, 3 hours (day 2) after administration",12.84 ± 4.12 %
same,% Reversal [mean ± SEM],"1 mg/kg oral once daily, 3 hours (day 3) after administration",9.58 ± 5.23%
same,% Reversal [mean ± SEM],"1 mg/kg oral once daily, 24 hours (0 hrs day 2) after administration",0.71 ± 2.46%
same,% Reversal [mean ± SEM],"1 mg/kg oral once daily, 24 hours (0 hrs day 3) after administration",4.89 ± 2.68%
same,% Reversal [mean ± SEM],"1 mg/kg oral once daily, 24 hours (0 hrs day 4) after administration",0.51 ± 3.15%
same,% Reversal [mean ± SEM],"1 mg/kg oral, 1 hours (day 1) after administration",14.60 ± 4.26%
same,% Reversal [mean ± SEM],"1 mg/kg oral, 3 hours (day 1) after administration",17.04 ± 4.91 %
same,% Reversal [mean ± SEM],"1 mg/kg oral, 5 hours (day 1) after administration",11.39 ± 3.13 %
same,% Reversal [mean ± SEM],"1 mg/kg oral, 7 hours (day 1) after administration",3.04 ± 4.49%
same,% Reversal [mean ± SEM],"3 mg/kg oral once daily, 1 hours (day 2) after administration",12.57 ± 2.38 %
same,% Reversal [mean ± SEM],"3 mg/kg oral once daily, 1 hours (day 3) after administration",11.80 ± 3.29%
same,% Reversal [mean ± SEM],"3 mg/kg oral once daily, 3 hours (day 2) after administration",17.14 ± 5.38 %
same,% Reversal [mean ± SEM],"3 mg/kg oral once daily, 3 hours (day 3) after administration",17.34 ± 3.91 %
same,% Reversal [mean ± SEM],"3 mg/kg oral once daily, 24 hours (0 hrs day 2) after administration",−5.34 ± 4.20%
same,% Reversal [mean ± SEM],"3 mg/kg oral once daily, 24 hours (0 hrs day 3) after administration",−3.85 ± 4.61%
same,% Reversal [mean ± SEM],"3 mg/kg oral once daily, 24 hours (0 hrs day 4) after administration",−1.95 ± 2.97%
same,% Reversal [mean ± SEM],"3 mg/kg oral, 1 hours (day 1) after administration",15.69 ± 4.62%
same,% Reversal [mean ± SEM],"3 mg/kg oral, 3 hours (day 1) after administration",18.39 ± 1.67 %
same,% Reversal [mean ± SEM],"3 mg/kg oral, 5 hours (day 1) after administration",12.22 ± 1.89 %
same,% Reversal [mean ± SEM],"3 mg/kg oral, 7 hours (day 1) after administration",7.65 ± 2.79%
same,% Reversal [mean ± SEM],"10 mg/kg oral once daily, 1 hours (day 2) after administration",27.41 ± 4.56 %
same,% Reversal [mean ± SEM],"10 mg/kg oral once daily, 1 hours (day 3) after administration",23.36 ± 4.69 %
same,% Reversal [mean ± SEM],"10 mg/kg oral once daily, 3 hours (day 2) after administration",29.12 ± 5.44 %
same,% Reversal [mean ± SEM],"10 mg/kg oral once daily, 3 hours (day 3) after administration",28.91 ± 5.72 %
same,% Reversal [mean ± SEM],"10 mg/kg oral once daily, 24 hours (0 hrs day 2) after administration",3.38 ± 3.97%
same,% Reversal [mean ± SEM],"10 mg/kg oral once daily, 24 hours (0 hrs day 3) after administration",2.87 ± 4.62%
same,% Reversal [mean ± SEM],"10 mg/kg oral once daily, 24 hours (0 hrs day 4) after administration",11.09 ± 3.45%
same,% Reversal [mean ± SEM],"10 mg/kg oral, 1 hours (day 1) after administration",32.51 ± 5.00 %
same,% Reversal [mean ± SEM],"10 mg/kg oral, 3 hours (day 1) after administration",34.17 ± 5.60 %
same,% Reversal [mean ± SEM],"10 mg/kg oral, 5 hours (day 1) after administration",19.59 ± 3.04 %
same,% Reversal [mean ± SEM],"10 mg/kg oral, 7 hours (day 1) after administration",17.06 ± 2.95 %
same,% reversal of neuropathic hyperalgesia,"oral 1 mg/kg once daily, day 2, 3 hour time point",12.84%
same,"% reversal of neuropathic hyperalgesia, maximum analgesic efficacy","oral 1 mg/kg, single (day 1) administration",17.04%
same,% reversal of neuropathic hyperalgesia,"oral 3 mg/kg once daily, day 2, 3 hour time point",17.14%
same,% reversal of neuropathic hyperalgesia,"oral 3 mg/kg once daily, day 3, 3 hour time point",17.34%
same,"% reversal of neuropathic hyperalgesia, maximum analgesic efficacy","oral 3 mg/kg, 3 h after day 1 administration",18.39%
same,% reversal of neuropathic hyperalgesia,"oral 10 mg/kg once daily, day 2, 3 hour time point",29.12%
same,% reversal of neuropathic hyperalgesia,"oral 10 mg/kg once daily, day 3, 3 hour time point",28.91%
same,% reversal of neuropathic hyperalgesia,"oral 10 mg/kg, 3 h after day 1 administration (maximum)",34.17%
